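How tested: cells in 96-well plates exposed to compound for 48 hours at five concentrations. GI50: concentration for 50% inhibition of growth.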 Calls of active or inactive are those of the source. Rule as the data show it: active = GI50 up to about 1.1 µM and inactive = higher.

The results in this text go back to ChEMBL document CHEMBL1201862, “PubChem BioAssay data set” (2004).

Some test systems named below: A498; CCRF-CEM; EKVX; HCC 2998; HCT-116; HL-60; HOP-92; Hs-578T; IGROV-1; KM12; LOX IMVI; MOLT-4; Malme-3M; NCI-H460; OVCAR-3; RPMI-8226; SF-268; U-251; UO-31; SN12C.
Assay in all cases: inhibition of tumour cell growth, NCI panel, 48 h

`O=C(NN=C1NCCCCN1)Nc1ccc(Cl)cc1`: the GI50 in the assay on A498 was > 100 µM (inactive); in the assay on CCRF-CEM, 47.2 µM (inactive); in the assay on EKVX, > 100 µM (inactive); in the assay on HCC 2998, > 100 µM (inactive); in the assay with HCT-116, > 100 µM (inactive); with HL-60 it was 26.5 µM (inactive). For the same compound, the GI50 in the assay on HOP-92 is > 100 µM (inactive); with Hs-578T, > 100 µM (inactive); with IGROV-1 it was > 100 µM (inactive); in the assay on KM12, > 100 µM (inactive); in the assay on LOX IMVI, > 100 µM (inactive); in the assay with MOLT-4, 23.9 µM (inactive). In addition, the GI50 in the assay with Malme-3M is > 100 µM (inactive); with NCI-H460 it was > 100 µM (inactive); in the assay on OVCAR-3 it was > 100 µM (inactive); in the assay on RPMI-8226, 45.1 µM (inactive); in the assay with SF-268 it was 93.1 µM (inactive); in the assay with U-251, > 100 µM (inactive). Besides, in the assay with UO-31, the GI50 was > 100 µM (inactive).

With `CC[C@@]1(O)CC(OC2CC(N3CCOCC3)C(O)C(C)O2)c2c(O)c3c(c(O)c2[C@H]1O)C(=O)c1cccc(O)c1C3=O` (stereo partly drawn), the GI50 in the assay with A498 is 0.191 µM (active); in the assay with CCRF-CEM it was 0.0379 µM (active); in the assay with EKVX, 0.318 µM (active); in the assay on HCC 2998, 0.223 µM (active); with HCT-116, 0.0519 µM (active); with HL-60, 0.0311 µM (active). Besides, the GI50 in the assay with HOP-92 was 0.0429 µM (active); with Hs-578T, 0.348 µM (active); in the assay with IGROV-1 it was 0.0959 µM (active); with KM12 it was 0.182 µM (active); in the assay on LOX IMVI, 0.0644 µM (active); in the assay with Malme-3M, 0.0502 µM (active). In addition, the GI50 was 0.00686 µM (active) in the assay with NCI-H460; 0.355 µM (active) with OVCAR-3; 0.0897 µM (active) in the assay with RPMI-8226; 0.122 µM (active) with SF-268; 0.0667 µM (active) in the assay with SN12C; 0.08 µM (active) in the assay with U-251.

Take `COC(=O)c1c2c(cc3c1CC1(Cc4cc5c(c(C(C)=O)c4C1)CCCC5)C3)CCCC2` (stereo not drawn): the GI50 was > 100 µM (inactive) with A498; 29.2 µM (inactive) in the assay on CCRF-CEM; > 100 µM (inactive) with EKVX; > 100 µM (inactive) with HCC 2998; 60 µM (inactive) in the assay with HCT-116; 12.6 µM (inactive) with HL-60. For the same compound, the GI50 with HOP-92, in the assay on Hs-578T, in the assay with IGROV-1, in the assay with KM12, in the assay with LOX IMVI and with Malme-3M was > 100 µM (inactive) throughout. The GI50 was > 100 µM (inactive) with OVCAR-3, 29.6 µM (inactive) with RPMI-8226, > 100 µM (inactive) in the assay on SN12C and > 100 µM (inactive) with U-251.

For the compound `COc1cccc2c(NNc3ccc(Cl)cc3)c3ccc([N+](=O)[O-])cc3nc12`, the GI50 with A498 was 12.9 µM (inactive); in the assay on CCRF-CEM, 2.74 µM (inactive); in the assay with EKVX, 12.5 µM (inactive); with HCC 2998 it was 13.8 µM (inactive); in the assay on HCT-116, 7.28 µM (inactive); with HL-60, 5.92 µM (inactive). Moreover, the GI50 in the assay on HOP-92 was 10.9 µM (inactive); with Hs-578T it was 14.5 µM (inactive); in the assay with KM12, 18.7 µM (inactive); in the assay with LOX IMVI, 11.3 µM (inactive); with MOLT-4 it was 1.92 µM (inactive); in the assay on Malme-3M, 10.3 µM (inactive). For the same compound, the GI50 in the assay with NCI-H460 is 4.92 µM (inactive); in the assay on OVCAR-3, 12.5 µM (inactive); with RPMI-8226, 14.3 µM (inactive); in the assay with SF-268, 12.7 µM (inactive); in the assay with SN12C, 20.8 µM (inactive); in the assay with U-251 it was 11.7 µM (inactive). Besides, the GI50 with UO-31 is 5.33 µM (inactive).

For `COC(=O)c1c2c(cc3c1CC1(Cc4cc5c(c(C=O)c4C1)CCC5)C3)CCC2` (stereo not drawn), the GI50 in the assay on A498 was 33.6 µM (inactive); in the assay with CCRF-CEM it was 13.4 µM (inactive); in the assay with EKVX, 62.1 µM (inactive); with HCC 2998, 24.7 µM (inactive); in the assay on HCT-116, 21.2 µM (inactive); in the assay on HL-60 it was 25.8 µM (inactive). Further, the GI50 in the assay with HOP-92 was 19.3 µM (inactive); in the assay on Hs-578T, 92.7 µM (inactive); in the assay on IGROV-1, 28.4 µM (inactive); in the assay with LOX IMVI, 22.5 µM (inactive); in the assay with MOLT-4, 17 µM (inactive); in the assay with Malme-3M it was 22.9 µM (inactive). The GI50 in the assay with NCI-H460 was 45 µM (inactive); in the assay with OVCAR-3, 23.3 µM (inactive); with RPMI-8226, 55.1 µM (inactive); in the assay on SF-268, 50.7 µM (inactive); with U-251, 19.8 µM (inactive); with UO-31 it was 25.1 µM (inactive).

For `CC(=O)OCC12C(=O)C[C@@H](C)C3(CC(c4ccoc4)OC3=O)C1CCC(OC(C)=O)C21CO1` (stereo partly drawn), the GI50 in the assay on A498, with HCC 2998, in the assay on HCT-116, in the assay with HL-60, in the assay with HOP-92 and with Hs-578T was > 100 µM (inactive) each time. Besides, the GI50 with IGROV-1, in the assay with KM12, in the assay with LOX IMVI, in the assay on MOLT-4, with Malme-3M and in the assay on NCI-H460 was > 100 µM (inactive) each time. For the same compound, the GI50 in the assay on OVCAR-3, in the assay with RPMI-8226, in the assay with SF-268, in the assay on SN12C, in the assay on U-251 and in the assay on UO-31 was > 100 µM (inactive) each time.

In the case of `CC(C)Cc1c(C#N)c(C#N)c(N)n1Cc1ccccc1`, the GI50 in the assay with A498, in the assay on CCRF-CEM, with EKVX, in the assay with HCC 2998, in the assay on HCT-116 and in the assay with HL-60 was > 100 µM (inactive) each time. The GI50 in the assay on HOP-92, with Hs-578T, in the assay on IGROV-1, in the assay on KM12, in the assay on LOX IMVI and with MOLT-4 was > 100 µM (inactive) throughout. Further, the GI50 in the assay on Malme-3M, with OVCAR-3, in the assay with RPMI-8226, in the assay with SF-268, in the assay with SN12C and in the assay on U-251 was > 100 µM (inactive) in each case. In the assay with UO-31, the GI50 is > 100 µM (inactive).

In the case of `CN1CCC2(CC1)/C(=N/C1CCCCC1)NC(=S)N2c1ccccc1`, the GI50 in the assay with A498, with CCRF-CEM, in the assay with EKVX, in the assay with HCC 2998, in the assay with HCT-116 and in the assay with HL-60 was > 100 µM (inactive) each time. For the same compound, the GI50 with HOP-92 was > 100 µM (inactive); in the assay on Hs-578T it was 13.8 µM (inactive); in the assay with IGROV-1 it was > 100 µM (inactive); with KM12, > 100 µM (inactive); in the assay on LOX IMVI, > 100 µM (inactive); with MOLT-4, > 100 µM (inactive). Moreover, the GI50 in the assay with Malme-3M, in the assay on NCI-H460, in the assay on RPMI-8226, with SF-268, with SN12C and with U-251 was > 100 µM (inactive) each time. Also, the GI50 in the assay with UO-31 is > 100 µM (inactive).

As to `CCOC(=O)C1(C#N)C(C#N)(C#N)C1(C#N)C#N`, the GI50 in the assay with A498, in the assay with CCRF-CEM, in the assay with EKVX, in the assay with HCC 2998, in the assay with HCT-116 and in the assay on HL-60 was > 100 µM (inactive) in each case. Moreover, the GI50 in the assay with HOP-92, in the assay with Hs-578T, with IGROV-1, in the assay on KM12, in the assay with LOX IMVI and in the assay with MOLT-4 was > 100 µM (inactive) in each case. The GI50 in the assay on Malme-3M, in the assay on NCI-H460, with RPMI-8226, with SF-268, in the assay with SN12C and in the assay with U-251 was > 100 µM (inactive) in each case. Besides, the GI50 with UO-31 is > 100 µM (inactive).

In the case of `O=C(N/N=C(COc1cccc(Cl)c1)\N=C\c1ccncc1)c1ccncc1`, the GI50 was 68.9 µM (inactive) with A498; > 100 µM (inactive) with CCRF-CEM; > 100 µM (inactive) in the assay with EKVX; > 100 µM (inactive) with HCC 2998; > 100 µM (inactive) with HCT-116; > 100 µM (inactive) in the assay on HL-60. In addition, the GI50 is 35.6 µM (inactive) in the assay with HOP-92; > 100 µM (inactive) in the assay on Hs-578T; > 100 µM (inactive) in the assay with IGROV-1; > 100 µM (inactive) with KM12; > 100 µM (inactive) in the assay on LOX IMVI; > 100 µM (inactive) with MOLT-4. Besides, the GI50 in the assay on Malme-3M, in the assay with NCI-H460, in the assay on OVCAR-3, in the assay on RPMI-8226, in the assay with SF-268 and in the assay with SN12C was > 100 µM (inactive) in each case. Also, the GI50 with U-251 is > 100 µM (inactive).

Take `Cc1nc2ccc(F)cc2c2c1CCN2c1ccccc1`: the GI50 was 27.6 µM (inactive) in the assay with A498; 21.5 µM (inactive) with CCRF-CEM; 22.4 µM (inactive) with EKVX; 18.1 µM (inactive) with HCC 2998; 8.18 µM (inactive) in the assay with HCT-116; 7.43 µM (inactive) in the assay with HL-60. In addition, the GI50 in the assay on HOP-92 was 12.2 µM (inactive); in the assay on Hs-578T, 17.9 µM (inactive); with IGROV-1 it was 18.6 µM (inactive); with KM12, 23.9 µM (inactive); in the assay with LOX IMVI it was 13.8 µM (inactive); with MOLT-4, 15.1 µM (inactive). Besides, the GI50 with Malme-3M is 20.2 µM (inactive); in the assay with NCI-H460, 13.5 µM (inactive); in the assay on OVCAR-3, 30.5 µM (inactive); in the assay with RPMI-8226 it was 15.8 µM (inactive); in the assay with SF-268, 23.3 µM (inactive); in the assay on U-251, 26 µM (inactive). In addition, in the assay with UO-31, the GI50 is 19 µM (inactive).
